Assay results reported in the Deep4Chem optical property database.
Each block holds one compound with its values, some of them ahead of it.

Experiment: solvent given as SMILES

absorption maximum (in C1CCOC1): 346 nm
SMILES: N#Cc1c(N2CCCCC2)cc(-c2ccc3ccc4cccc5ccc2c3c45)c2c1-c1ccccc1C2

absorption maximum (in CC#N): 302.58 nm
absorption maximum (in CCO): 300.29 nm
absorption maximum (in ClCCl): 304 nm
SMILES: CN(C)c1cc(-c2ccc(C#Cc3ccccc3)cc2)cc2ccccc12

absorption maximum (in ClCCl): 430 nm
SMILES: FC(F)(F)c1ccc(/C=C/c2nc(/C=C/c3ccc(N(c4ccccc4)c4ccccc4)cc3)cc(/C=C/c3ccc(N(c4ccccc4)c4ccccc4)cc3)n2)cc1

absorption maximum (in ClCCl): 398 nm
SMILES: C[Si]1(C)c2ccc(-c3ccc(-c4cccs4)s3)cc2C=Cc2cc(-c3ccc(-c4cccs4)s3)ccc21

absorption maximum (in C1COCCO1): 534 nm
absorption maximum (in CN(C)C=O): 542 nm
absorption maximum (in CO): 536 nm
absorption maximum (in CS(C)=O): 546 nm
SMILES: O=C1/C(=C2\Sc3ccc(S(=O)(=O)Nc4ccccc4)cc3C2=O)Sc2ccc(S(=O)(=O)Nc3ccccc3)cc21

absorption maximum (in ClCCl): 325 nm
SMILES: CCOC(=O)c1c(-c2cc3ccccc3oc2=O)nn(-c2cccc(Cl)c2)c1C(=O)OCC

absorption maximum (in ClC(Cl)Cl): 506 nm
SMILES: CC1=CC(C)=[N+]2C1=C(c1ccc(I)cc1)c1c(C)cc(C)n1[B-]2(OCc1ccccc1)OCc1ccccc1

absorption maximum (in C1CCOC1): 358 nm
SMILES: Cc1cc(C)c(B(c2ccc3c(c2)c2cc(B(c4c(C)cc(C)cc4C)c4c(C)cc(C)cc4C)ccc2n3-c2ccc(C(=C(c3ccccc3)c3ccccc3)c3ccccc3)cc2)c2c(C)cc(C)cc2C)c(C)c1

absorption maximum (in CC#N): 357 nm
absorption maximum (in CCCCCC): 354 nm
absorption maximum (in CCO): 362 nm
absorption maximum (in CO): 359 nm
absorption maximum (in ClCCl): 360 nm
SMILES: c1ccc(-c2cc(-c3ccc(N(c4ccccc4)c4ccccc4)cc3)cc(-c3ccccc3)n2)cc1

absorption maximum (in C1COCCO1): 442 nm
SMILES: O=C1OC(c2ccccc2)=C/C1=C\c1ccccc1

absorption maximum (in C1CCOC1): 437 nm
SMILES: c1ccc2c(P(c3c4ccccc4cc4ccccc34)c3c4ccccc4cc4ccccc34)c3ccccc3cc2c1

absorption maximum (in CO): 800 nm
SMILES: CC1(C)C(/C=C/C2=C(c3ccc(C(=O)O)cc3)C(=C/C=C3/N(CCCS(=O)(=O)[O-])c4ccc5ccccc5c4C3(C)C)/CCC2)=[N+](CCCS(=O)(=O)[O-])c2ccc3ccccc3c21

absorption maximum (in c1cc(-c2cccc(-n3c4ccccc4c4ccccc43)c2)cc(-n2c3ccccc3c3ccccc32)c1): 387.78 nm
SMILES: c1ccc(-c2nc(-c3ccccc3)nc(-c3ccc(-c4ccc5c(c4)C4(c6ccccc6-c6ccccc64)c4ccccc4N5c4ccccc4)cc3)n2)cc1

absorption maximum (in CO): 406 nm
SMILES: Nc1ccc(C#Cc2ccc3ccc4ccc(C#Cc5ccc(NS(=O)(=O)c6ccc([N+](=O)[O-])cc6[N+](=O)[O-])cc5)c5ccc2c3c45)cc1

absorption maximum (in ClC(Cl)Cl): 278 nm
SMILES: c1ccc(-c2ccnc(-c3ccccc3)n2)cc1

absorption maximum (in CCO): 329 nm
SMILES: Cc1cc(=O)oc2cc(-c3cn(Cc4ccccc4)nn3)ccc12

absorption maximum (in CO): 295 nm
SMILES: COc1ccc(-c2nc(-c3ccc(OC)cc3)c(-c3ccc(OC)cc3)[nH]2)cc1

absorption maximum (in ClCCl): 417 nm
SMILES: CCCCN(CCCC)c1ccc(C#Cc2cc(C#Cc3ccc([N+](=O)[O-])cc3)c(C#Cc3ccc([N+](=O)[O-])cc3)cc2C#Cc2ccc(N(CCCC)CCCC)cc2)cc1

absorption maximum (in CS(C)=O): 572 nm
SMILES: CCCCN1/C(=C/C=C/C2=[N+](C)c3ccccc3C2(C)C)C(C)(C)c2c1ccc1ccccc21

absorption maximum (in CC(C)O): 537.1 nm
absorption maximum (in CCO): 534 nm
absorption maximum (in CO): 529 nm
absorption maximum (in O): 520 nm
SMILES: Cc1cc2nc3cc(C)c(N)cc3[n+](-c3ccccc3)c2cc1N

absorption maximum (in C1CCCCC1): 324 nm
absorption maximum (in C1COCCO1): 324 nm
absorption maximum (in CC#N): 326 nm
absorption maximum (in CCO): 328 nm
absorption maximum (in CCOC(C)=O): 325 nm
absorption maximum (in CN(C)C=O): 326 nm
absorption maximum (in CO): 328 nm
absorption maximum (in c1ccccc1): 324 nm
SMILES: Cc1cc2ccc(-c3cccc4cccc(-c5ccc6cc(C)c(=O)oc6c5)c34)cc2oc1=O

absorption maximum (in C1CCOC1): 344 nm
SMILES: N#Cc1c(N2CCCCC2)cc(-c2ccc3ccc4cccc5ccc2c3c45)c2c1C(=O)c1ccccc1-2

absorption maximum (in ClCCl): 506 nm
SMILES: CN(C)c1ccc(C#Cc2cc(C#Cc3ccc(C(F)(F)F)cc3)c3ccc4c(C#Cc5ccc(C(F)(F)F)cc5)cc(C#Cc5ccc(N(C)C)cc5)c5ccc2c3c54)cc1

absorption maximum (in C1CCOC1): 355 nm
SMILES: O=P1(c2ccccc2)C(c2ccsc2)=C(c2ccsc2)c2ccccc21 (stereo not drawn)

The next lines start with the compound.

SMILES: CC(C)[Si]1(C(C)C)c2cc(C=C(C#N)C#N)ccc2-c2ccc(N(c3ccccc3)c3ccccc3)cc21
absorption maximum (in C1CCCCC1): 484 nm
absorption maximum (in CC#N): 461 nm
absorption maximum (in CCO): 467 nm
absorption maximum (in CCOCC): 467 nm
absorption maximum (in CS(C)=O): 466 nm
absorption maximum (in ClCCl): 481 nm
absorption maximum (in c1ccccc1): 477 nm

SMILES: CCOc1ccc2c(-c3nc(-c4cccc(Br)c4)no3)cc(=O)oc2c1
absorption maximum (in CCO): 388 nm
absorption maximum (in ClC(Cl)Cl): 403 nm

SMILES: CCn1c2ccccc2c2cc(C#Cc3cc(C#Cc4ccc5c(c4)c4ccccc4n5CC)nc(N4CCCCC4)n3)ccc21
absorption maximum (in C1CCOC1): 393 nm
absorption maximum (in CCOC(C)=O): 391 nm
absorption maximum (in CN(C)C=O): 398 nm
absorption maximum (in Cc1ccccc1): 395 nm
absorption maximum (in ClCCl): 397 nm

SMILES: N#CC1=c2cc3c4c(c2Oc2c1cc1c5c2CCCN5CCC1)CCC[N+]=4CCC3
absorption maximum (in CCO): 682 nm

SMILES: CN1C(=CC2=C([O-])C(=O)C2=C(C#N)C#N)Sc2ccccc21
absorption maximum (in CCO): 481 nm

SMILES: CCCCCCCCC1(CCCCCCCC)c2cc(C=O)ccc2-c2ccc(/C=C/c3ccc(N(c4ccccc4)c4ccccc4)cc3)cc21
absorption maximum (in C1CCOC1): 406 nm
absorption maximum (in C1COCCO1): 411 nm
absorption maximum (in CC#N): 406 nm
absorption maximum (in CC(C)=O): 409 nm
absorption maximum (in CCCCCC): 405 nm
absorption maximum (in CCOC(C)=O): 409 nm
absorption maximum (in CN(C)C=O): 410 nm
absorption maximum (in CS(C)=O): 408 nm
absorption maximum (in Cc1ccccc1): 411 nm
absorption maximum (in ClC(Cl)Cl): 409 nm
absorption maximum (in ClCCl): 411 nm

SMILES: O=P1(c2ccccc2)C(c2cc(C(F)(F)F)cc(C(F)(F)F)c2)=Cc2c3ccc4cccc5ccc(c6cc(-c7ccccc7)n1c26)c3c45 (stereo not drawn)
absorption maximum (in C1CCCCC1): 451 nm
absorption maximum (in C1CCOC1): 451 nm
absorption maximum (in C1COCCO1): 448 nm
absorption maximum (in CC#N): 445 nm
absorption maximum (in CC(C)=O): 446 nm
absorption maximum (in CO): 444 nm
absorption maximum (in Cc1ccccc1): 453 nm
absorption maximum (in ClC(Cl)Cl): 452 nm
absorption maximum (in ClCCl): 450 nm

SMILES: C[Si](C)(C)C#Cc1cccc2ccccc12
absorption maximum (in C1CCCCC1): 316 nm

SMILES: CCOC(=O)c1sc(-c2ccc(-c3cc(C4CC4)c(C(=O)OCC)s3)s2)cc1C1CC1
absorption maximum (in ClCCl): 395 nm

SMILES: CCOC(=O)c1cc(C(=O)OCC)c2ccc(N(C)C)cc2n1
absorption maximum (in CCO): 430 nm

SMILES: CC(=O)c1nc(-c2ccc(N(c3ccccc3)c3ccccc3)cc2)oc1C
absorption maximum (in CC#N): 332 nm
absorption maximum (in CCCCCC): 324 nm
absorption maximum (in CCO): 333 nm
absorption maximum (in CCOC(C)=O): 326 nm
absorption maximum (in CCOCC): 326 nm
absorption maximum (in ClCCl): 328 nm

SMILES: CCCCCCC(CCCCCC)N1C(=O)c2cccc3c(-c4ccccc4)ccc(c23)C1=O
absorption maximum (in CCCCCC): 342.2 nm
absorption maximum (in CCCCCCCCCCCCCC): 343.4 nm
absorption maximum (in CCCCCCCCCCCO): 353.4 nm
absorption maximum (in CCCCO): 355.2 nm
absorption maximum (in CN(C)C=O): 355.2 nm
absorption maximum (in Cc1ccccc1): 346.8 nm
absorption maximum (in ClC(Cl)Cl): 355.4 nm

SMILES: c1ccc(-c2cc(-c3ccc(N4c5ccccc5C(c5ccccc5)(c5ccccc5)c5ccccc54)cn3)nc(-c3ccccc3)n2)cc1
absorption maximum (in Cc1ccccc1): 378.85 nm

SMILES: CCC1(CC)c2cc(B(c3c(C)cc(C)cc3C)c3c(C)cc(C)cc3C)ccc2-c2ccc(N(c3ccccc3)c3ccccc3)cc21
absorption maximum (in C1CCOC1): 400 nm
absorption maximum (in CC#N): 394 nm
absorption maximum (in CC(C)=O): 398 nm
absorption maximum (in CCCCCC): 401 nm
absorption maximum (in CN(C)C=O): 396 nm
absorption maximum (in Cc1ccccc1): 403 nm
absorption maximum (in ClC(Cl)Cl): 402 nm

SMILES: CCC/N=C/c1cc2ccc(N(C)C)cc2cc1OC
absorption maximum (in C1CCOC1): 369 nm
absorption maximum (in CC#N): 369 nm
absorption maximum (in CC(C)O): 450 nm
absorption maximum (in CCOC(C)=O): 369 nm
absorption maximum (in CN(C)C=O): 374 nm
absorption maximum (in CS(C)=O): 376 nm
absorption maximum (in Cc1ccccc1): 369 nm
absorption maximum (in ClCCl): 368 nm
absorption maximum (in O): 438 nm

SMILES: O=C1/C(=C2\Sc3ccc(S(=O)(=O)O)cc3C2=O)Sc2ccc(S(=O)(=O)O)cc21
absorption maximum (in C1COCCO1): 530 nm
absorption maximum (in CN(C)C=O): 551 nm
absorption maximum (in CO): 553 nm
absorption maximum (in CS(C)=O): 553 nm
absorption maximum (in O): 546 nm

SMILES: CN(C)c1ccc2c3c(c(=O)oc2c1)C=c1cc2c(cc1O3)=[N+](CCC(=O)O)CCC2
absorption maximum (in CC#N): 593 nm
absorption maximum (in CO): 591 nm
absorption maximum (in ClCCl): 606 nm
absorption maximum (in O): 587 nm

SMILES: CCOC(=O)c1c(-c2c(Cl)c3cc(C)ccc3oc2=O)nn(-c2cccc(Cl)c2)c1C(=O)OCC
absorption maximum (in ClCCl): 331 nm

SMILES: CN1C(=CC2=C([O-])C(=Cc3oc4ccccc4[n+]3C)C2=C(C#N)C#N)C(C)(C)c2ccccc21
absorption maximum (in ClC(Cl)Cl): 655 nm

SMILES: CC(C)(C)NC(=O)c1c([Si](C)(C)C)cc2ccc3cccc4ccc1c2c34
absorption maximum (in ClC(Cl)Cl): 382 nm

SMILES: C[C@]12SC(=O)C=C1c1nc(-c3ccccc3)[nH]c1C1=CC(=O)S[C@@]12C
absorption maximum (in CC#N): 460 nm

SMILES: CN(C)c1cc2c(cc1F)c(=O)c1cc(F)c(N)cc1n2C
absorption maximum (in CCO): 369 nm

SMILES: CCOC(=O)c1c2c3c(ccc(OC)c3c3cc4ccccc4cc13)N(C)C2=O
absorption maximum (in CC#N): 406 nm

SMILES: Cc1cc(O)c(C(=O)/C=C/c2ccc([N+](=O)[O-])cc2)c(=O)o1
absorption maximum (in CC#N): 358 nm
absorption maximum (in ClCCl): 361 nm

SMILES: CC(C)(C)c1ccc(C#Cc2c(C#Cc3ccc(C(C)(C)C)cc3)c3cccc4c(C#Cc5ccc(C(C)(C)C)cc5)c(C#Cc5ccc(C(C)(C)C)cc5)c5cccc2c5c34)cc1
absorption maximum (in ClCCl): 410 nm

SMILES: O=C1c2ccccc2C2=Cc3cc4c(cc3B(O)N12)OCO4
absorption maximum (in CC#N): 392 nm
absorption maximum (in CO): 394 nm
absorption maximum (in CS(C)=O): 396 nm
absorption maximum (in ClC(Cl)Cl): 397 nm

SMILES: COCCC1=Cc2nc1ccc1[nH]c(cc1CCOC)c1nc(ccc3[nH]c2cc3CCOC)C(CCOC)=C1
absorption maximum (in Cc1ccccc1): 638 nm

SMILES: CC(C)(C)c1ccc2c(c1)c1cc(C(C)(C)C)ccc1n2-c1cccs1
absorption maximum (in ClCCl): 340 nm

SMILES: Nc1n[n+]([O-])c2ccccc2[n+]1[O-]
absorption maximum (in CC#N): 477 nm
absorption maximum (in O): 457 nm
